Patent US12630537B2, “Pyridazinone and methods of use thereof” (ALIGOS THERAPEUTICS, INC., priority 2020, dated 2026)
pEC50: −log10 of the molar value. Where two headings read alike, the source gives them in different places.

Legend:
[1] = Hepatocyte stability assay, mouse; assay type: in vitro ADME; conditions: for Hepatocytes % Remaining: 1 μM, time point not given; for half-life at 1 μM: cryopreserved hepatocytes, 0.5 million cells/mL, read-out: Hepatocytes T1/2
Experimental: (§1) Cryopreserved hepatocytes were taken from the liquid nitrogen tank and thawed quickly in a 37° C. water bath. As soon as the cells pulled away from the vial wall, they were decanted into 48 mL of warm thawing (HT) medium. Cells were centrifuged for 5 minutes at 420 RPM (50 g). After removing the supernatant, the pellets were re-suspended in 4 mL of warm Dulbecco's Modified Eagle Medium (DMEM). Cell density was counted by a hemocytometer.
(§2) The assay was carried out in 96-well microtiter plates. The study compound was incubated at 1 μM with 0.5 million cells/mL hepatocytes in DMEM for 0, 60, 120, and 180 minutes at 37° C. The volume of the incubation mixture was 37 μL with a final DMSO content of 0.1%. At each time point, the incubation was stopped by the addition of 150 μL quenching solution (100% acetonitrile, 0.1% formic acid containing the internal standard bucetin at 15 nM). Subsequently, the mixtures were vortexed for 20 minutes and centrifuged at 4,000 RPM at 10° C. An aliquot of 80 μL of the supernatant was transferred to a clean 96-well plate and analyzed by LC/MS/MS. Midazolam at 1 μM with a final DMSO content of 0.1% was included as a positive control to verify the assay performance.

[2] = Pharmacokinetics in rat (i.v.); assay type: in vivo, Male Sprague-Dawley rats; conditions: for concentration at 12 h / clearance / half-life: male, Sprague-Dawley, iv 1 mg/kg; for clearance / half-life: 60% PEG400 in water
Experimental: Male Sprague-Dawley rats were administered the study compound as an i.v. bolus dose of 1 mg/kg in a 0.500 mg/mL solution in 60% PEG400 in water.

THR alpha = target: T1, THR alpha (Homo sapiens, UniProt P10827); assay: HEK293T THRalpha/RXR luciferase reporter assay; assay type: cell-based; conditions: HEK293T TRE-luciferase reporter, 18-24 h; read-out: EC50 THR-α (HEK 293 Activity)
T1 construct: expressed in transfected cells; host or cells: HEK293T (ATCC CRL-3216)
T1 sequence (P10827 1-410 isoform P10827-2): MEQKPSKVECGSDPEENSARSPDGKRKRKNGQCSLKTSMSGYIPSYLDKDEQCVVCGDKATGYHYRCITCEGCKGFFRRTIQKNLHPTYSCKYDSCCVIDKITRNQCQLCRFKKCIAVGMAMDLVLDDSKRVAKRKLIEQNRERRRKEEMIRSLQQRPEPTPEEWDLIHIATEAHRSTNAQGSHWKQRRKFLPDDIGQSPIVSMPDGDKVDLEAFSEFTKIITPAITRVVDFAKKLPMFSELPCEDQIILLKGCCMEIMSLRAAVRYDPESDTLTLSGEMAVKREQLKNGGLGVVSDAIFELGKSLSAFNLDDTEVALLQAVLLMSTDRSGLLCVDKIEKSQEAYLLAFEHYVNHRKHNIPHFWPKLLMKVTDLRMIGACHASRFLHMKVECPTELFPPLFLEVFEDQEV
T1 sequence (P19793 1-462 partner): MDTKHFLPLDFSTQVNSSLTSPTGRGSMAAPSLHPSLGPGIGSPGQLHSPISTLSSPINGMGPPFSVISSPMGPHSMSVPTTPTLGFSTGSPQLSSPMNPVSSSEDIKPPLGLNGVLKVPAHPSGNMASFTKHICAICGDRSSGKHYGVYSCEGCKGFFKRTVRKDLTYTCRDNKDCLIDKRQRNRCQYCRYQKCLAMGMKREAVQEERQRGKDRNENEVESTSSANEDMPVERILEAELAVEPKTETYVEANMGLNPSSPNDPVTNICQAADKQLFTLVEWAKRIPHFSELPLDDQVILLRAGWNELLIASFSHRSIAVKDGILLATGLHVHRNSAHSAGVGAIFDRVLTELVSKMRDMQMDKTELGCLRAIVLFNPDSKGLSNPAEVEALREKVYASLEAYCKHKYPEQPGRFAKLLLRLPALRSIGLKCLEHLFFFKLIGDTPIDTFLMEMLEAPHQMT
Experimental: (§3) The purpose of this assay is to evaluate the effect of compounds on the thyroid hormone nuclear receptor pathway in HEK293T cells. To this end, HEK293T cells are transiently transfected with a luciferase reporter under the control of the thyroid response element (TRE), an RXR expression plasmid and either a THR alpha or THR beta expression plasmid. Transfected cells are stimulated with test compounds for 18-24 hours before activation of the thyroid hormone pathway is measured via a luciferase read-out.
(§4) Procedure. 24 hours prior to transfection, approximately […] HEK293T (ATCC, catalog #CRL-3216) were plated in one well of a 6-well-plate using DMEM (Hyclone, catalog #SH30022) supplemented with 10% FBS (Gibco, catalog #16000-044) and incubated overnight. Transfection complexes were prepared by mixing 12 μL of Lipofectamine 2000 (Invitrogen catalog #11668019) with 4 μg of a plasmid mixture at a ratio of 1:1:4 (TRalpha or TRbeta:RXR:TRE-Luc) in 200 μL OptiMem (Invitrogen catalog #11058-021) and added to the cells. […] Approximately 18-24 h after compound addition, 384 well plates were allowed to adjust to rt, 30 μL One-Glo (Promega catalog #E6120) is added to each well and luminescence was measured on a Perkin Elmer Enspire plate reader. Percent agonism was calculated using the following equation: 100×(sample−negative control)/(positive control−negative control).

[3] = system: WT C57BL/6 mice fed a high fat diet; assay: Cholesterol reduction in a murine efficacy model; assay type: in vivo, mouse; conditions: 0.025 mg/kg BID p.o., 7 days, high fat diet C57BL/6 mice
Experimental: Model description. WT C57BL/6 mice were fed a high fat diet (D12109C) for 2 weeks. Prior to the administration of compound 1a, blood was drawn to measure the baseline lipid levels. Compound 1a was dosed daily (p.o.) for 7 days. Blood was drawn to measure lipid levels.

THR beta = target: T2, THR beta (Homo sapiens, UniProt P10828); assay: HEK293T THRbeta/RXR luciferase reporter assay; assay type: cell-based
T2 construct: expressed in transfected cells; host or cells: HEK293T (ATCC CRL-3216)
T2 sequence (P10828 1-461): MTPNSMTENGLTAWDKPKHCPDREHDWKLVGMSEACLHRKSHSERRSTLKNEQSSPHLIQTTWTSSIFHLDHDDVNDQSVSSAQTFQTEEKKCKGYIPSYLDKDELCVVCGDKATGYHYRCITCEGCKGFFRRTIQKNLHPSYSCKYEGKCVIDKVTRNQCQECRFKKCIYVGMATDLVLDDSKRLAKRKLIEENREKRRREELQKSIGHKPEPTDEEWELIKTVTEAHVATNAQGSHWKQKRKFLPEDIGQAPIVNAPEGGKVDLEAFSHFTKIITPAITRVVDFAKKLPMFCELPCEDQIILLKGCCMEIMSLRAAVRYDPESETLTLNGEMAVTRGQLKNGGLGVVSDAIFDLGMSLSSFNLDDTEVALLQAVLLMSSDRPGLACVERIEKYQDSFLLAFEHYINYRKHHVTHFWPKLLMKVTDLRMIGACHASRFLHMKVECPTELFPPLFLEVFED
T2 sequence (P19793 1-462 partner): T1 sequence (P19793 1-462 partner)
Experimental: as §3, §4

[4] = Pharmacokinetic profile in mouse; assay type: in vivo
[5] = Microsomal stability assay, rat; assay type: in vitro ADME; conditions: for Liver Microsomes % Remaining: 1 μM, time point not given; for half-life at 1 μM: liver microsomes, pH 7.4, 0.5 mg/mL microsomes, read-out: Liver Microsomes T1/2
Experimental: (§5) The assay was carried out in 96-well microtiter plates. Test compounds, at a final concentration of 1 μM was incubated at 37° C. with 0.5 mg/mL liver microsomes, and +/−1 mM NADPH in 100 mM potassium phosphate, pH 7.4 buffer with 3.3 mM MgCl2. […] At each of the time points (0, 15, 30 and 60 min), incubation was stopped by adding 150 μL of the quenching solutions (100% acetonitrile, 0.1% formic acid) and subsequently the mixtures were vortexed vigorously for 20 min and centrifuged at 4,000 RPM at 4° C. The supernatants (80 μL) were transferred to a clean 96-well plate and analyzed by LC/MS/MS. Verapamil at 1 μM with a final 0.1% DMSO was included as a positive control to verify assay performance.

[6] = Hepatocyte stability assay, rat; assay type: in vitro ADME; conditions: for Hepatocytes % Remaining: 1 μM, time point not given; for half-life at 1 μM: cryopreserved hepatocytes, 0.5 million cells/mL, read-out: Hepatocytes T1/2
Experimental: as §1, §2

[7] = Hepatocyte stability assay, human; assay type: in vitro ADME; conditions: for Hepatocytes % Remaining: 1 μM, time point not given; for half-life at 1 μM: cryopreserved hepatocytes, 0.5 million cells/mL, read-out: Hepatocytes T1/2
Experimental: as §1, §2

[8] = Microsomal stability assay, mouse; assay type: in vitro ADME; conditions: for Liver Microsomes % Remaining: 1 μM, time point not given; for half-life at 1 μM: liver microsomes, pH 7.4, 0.5 mg/mL microsomes, read-out: Liver Microsomes T1/2
Experimental: as §5

[9] = Microsomal stability assay, human; assay type: in vitro ADME; conditions: for Liver Microsomes % Remaining: 1 μM, time point not given; for half-life at 1 μM: liver microsomes, pH 7.4, 0.5 mg/mL microsomes, read-out: Liver Microsomes T1/2
Experimental: as §5

[10] = target: human thyroid receptor alpha ligand-binding domain (THR-α) (Homo sapiens, UniProt P10827); assay: TR-FRET thyroid receptor coactivator assay (THR biochemical assay), alpha
Description: (§6) The TR-FRET thyroid receptor beta coactivator assay was used with slight, optimized modifications of the manufacturer's protocol (Invitrogen). The assay uses a terbium-labeled anti-GST antibody, a glutathione-S-transferase (GST) tagged human thyroid receptor, beta or alpha, ligand-binding domain (LBD), and a fluorescein labeled SRC2-2 coactivator peptide. […] The energy transfer was detected as an increase in the fluorescence emission of the fluorescein acceptor, and a decrease in the fluorescence emission of the terbium donor. The assay was performed in a 384-well black plate in a final volume of 20 μL. Serial dilution of various test agonists was performed in DMSO (1% final DMSO concentration) and added to the test plate. Thyroid receptor beta LBD was added to the plate at a final concentration of 1 nM, followed by the mixture of the fluorescein labeled SRC2-2 coactivator peptide, and the terbium-labeled anti-GST antibody at final concentrations of 200 nM and 2 nM respectively. The assay was incubated for 1 hr at rt protected from light.

[11] = target: T3, human thyroid receptor beta ligand-binding domain (THR-β) (Homo sapiens, UniProt P10828); assay: TR-FRET thyroid receptor beta coactivator assay (THR biochemical assay)
T3 sequence (P10828 217-461 limits assumed): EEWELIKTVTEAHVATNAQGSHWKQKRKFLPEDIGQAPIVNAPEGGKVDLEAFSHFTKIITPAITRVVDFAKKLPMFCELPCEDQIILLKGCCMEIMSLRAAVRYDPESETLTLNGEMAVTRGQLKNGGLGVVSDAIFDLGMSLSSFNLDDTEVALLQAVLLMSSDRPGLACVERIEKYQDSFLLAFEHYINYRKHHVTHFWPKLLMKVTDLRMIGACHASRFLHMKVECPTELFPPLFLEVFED
Description: as §6

Hepatocytes % Remaining [1] | half-life at 1 μM [1] | clearance ([2]; plasma) | half-life ([2]; plasma) | Liver Microsomes % Remaining [5] | half-life at 1 μM [5] | Hepatocytes % Remaining [6] | half-life at 1 μM [6] | Hepatocytes % Remaining [7] | half-life at 1 μM [7] | Liver Microsomes % Remaining [8] | half-life at 1 μM [8] | Liver Microsomes % Remaining [9] | half-life at 1 μM [9] | Structure (SMILES) | also measured
(88) % | > 6 h | 2.14 mL/min/kg | 5.25 h | (98) % | > 1 h | (107) % | > 6 h | (100) % | > 6 h | (100) % | > 1 h | (107) % | > 1 h | CC(c1cc(Oc2c(Cl)cc(-n3nc(N)c(=O)[nH]c3=O)cc2Cl)n[nH]c1=O)C1CC1 (single isomer, unassigned) [Compound 1a] | Liver/Heart Concentration ([2]; at 12 h): 62 at 12 h; in vivo half-life compared to compound 2 ([2]; comparison in words): unexpectedly longer; concentration at 12 h ([2]; liver, read-out: Liver conc. 12 h): 14400 ng/g; concentration at 12 h ([2]; plasma, read-out: Plasma conc. 12 h): 336 ng/mL; pEC50 (THR alpha): 6.70; reduction in cholesterol [3]: 24.5%; pEC50 (THR beta; HEK293T TRE-luciferase reporter, 18-24 h, read-out: EC50 THR-β (HEK 293 Activity)): 7.42; THR-β Selectivity (HEK 293 Activity) (THR beta; THR-β over THR-α, HEK293T reporter): 5; Liver/Heart Concentration ([4]; at 24 h): 27.6 at 24 h; clearance ([4]; in vivo): 6.3 mL/min/kg; half-life ([4]; in vivo): 2.87 h; pEC50 [10]: 6.60; pEC50 [11]: 7.59; THR-β Selectivity (Biochemical Activity) ([11]; THR-β over THR-α, TR-FRET assay): 9.5; in vitro THR-β selectivity compared to its enantiomer, compound 1b ([11]; biochemical assay, comparison in words): higher
(18) % | 1.18 h | 9.14 mL/min/kg | 1.31 h | (85) % | > 1 h | (24) % | 1.43 h | (31) % | 1.72 h | (94) % | > 1 h | (84) % | > 1 h | C#Cc1nn(-c2cc(Cl)c(Oc3cc(C(C)C)c(=O)[nH]n3)c(Cl)c2)c(=O)[nH]c1=O [Compound 2, reference compound] | 
